Values quoted from earlier work in article PMC10651166 (Journal of acquired immune deficiency syndromes (1999), 2023).
Converted amounts (≈) assume the structure as drawn.

Tested on: wild-type virus (HIV)
Settings: protein-adjusted

Structure (SMILES): CC(C)CN(C[C@@H](O)[C@H](Cc1ccccc1)NC(=O)O[C@H]1CO[C@H]2OCC[C@H]21)S(=O)(=O)c1ccc(N)cc1 [Darunavir]
- EC50: 0.055 µg/mL (≈ 0.1 µM)
